According to the supplement of paper PMC10307832:

Experiments:
Experiment in all cases: relative viability (nuclei count vs DMSO), 5 days (fraction); higher = more cells survive
YM155 + Palbociclib = compound: COCC[n+]1c2c(n(Cc3cnccn3)c1C)C(=O)c1ccccc1C2=O [YM155] + CC(=O)c1c(C)c2cnc(Nc3ccc(N4CCNCC4)cn3)nc2n(C2CCCC2)c1=O [Palbociclib] (partner 0.5 µM)
Method in brief: (§1)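 Relative viability was taken as the ratio of nuclei in treated wells to nuclei in vehicle wells. Lung cancer cell lines in 1536-well plates received compounds by pin tool one day after seeding, either one drug alone or a fixed anchor-drug dose plus five library-drug doses (not always all listed) in √10 steps. Nuclei were counted on 4× images after 5 days of treatment, and values are medians of duplicate plates.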

YM155 + Decitabine = compound: COCC[n+]1c2c(n(Cc3cnccn3)c1C)C(=O)c1ccccc1C2=O [YM155] + Nc1ncn([C@H]2C[C@H](O)[C@@H](CO)O2)c(=O)n1 [Decitabine] (partner 2 µM)
Method in brief: as §1

Quizartinib + Crizotinib = compound: CC(C)(C)c1cc(NC(=O)Nc2ccc(-c3cn4c(n3)sc3cc(OCCN5CCOCC5)ccc34)cc2)no1 [Quizartinib] + C[C@@H](Oc1cc(-c2cnn(C3CCNCC3)c2)cnc1N)c1c(Cl)ccc(F)c1Cl [Crizotinib] (partner 1 µM)
Method in brief: as §1

Quizartinib + Linsitinib = compound: CC(C)(C)c1cc(NC(=O)Nc2ccc(-c3cn4c(n3)sc3cc(OCCN5CCOCC5)ccc34)cc2)no1 [Quizartinib] + C[C@]1(O)C[C@@H](c2nc(-c3ccc4ccc(-c5ccccc5)nc4c3)c3c(N)nccn32)C1 [Linsitinib] (partner 1 µM)
Method in brief: as §1

Cell Line	relative viability (YM155 + Palbociclib; first compound 0.002 µM)	relative viability (YM155 + Palbociclib; first compound 0.006325 µM)	relative viability (YM155 + Palbociclib; first compound 0.02 µM)	relative viability (YM155 + Palbociclib; first compound 0.06325 µM)	relative viability (YM155 + Decitabine; first compound 0.002 µM)	relative viability (YM155 + Decitabine; first compound 0.006325 µM)	relative viability (YM155 + Decitabine; first compound 0.02 µM)	relative viability (YM155 + Decitabine; first compound 0.06325 µM)	relative viability (Quizartinib + Crizotinib; first compound 0.001 µM)	relative viability (Quizartinib + Crizotinib; first compound 0.003162 µM)	relative viability (Quizartinib + Crizotinib; first compound 0.01 µM)	relative viability (Quizartinib + Crizotinib; first compound 0.03162 µM)	relative viability (Quizartinib + Crizotinib; first compound 0.1 µM)	relative viability (Quizartinib + Linsitinib; first compound 0.001 µM)	relative viability (Quizartinib + Linsitinib; first compound 0.003162 µM)	relative viability (Quizartinib + Linsitinib; first compound 0.01 µM)	relative viability (Quizartinib + Linsitinib; first compound 0.03162 µM)	relative viability (Quizartinib + Linsitinib; first compound 0.1 µM)
LU99A	0.416	0.403	0.388	0.409	0.84	0.808	0.824	0.936	0.49	0.507	0.656	0.534	0.507	0.509	0.504	0.628	0.497	0.417
EKVX	0.386	0.348	0.42	0.215	0.332	0.389	0.312	0.228	0.867	0.683	0.779	0.994	1.09	0.92	1	1.02	0.954	1.1
LC-2-ad	0.455	0.485	0.511	0.411	0.773	0.788	0.742	0.706	0.437	0.514	0.583	0.469	0.362	0.77	0.782	0.909	0.76	0.605
EBC-1	–	–	–	–	–	–	–	–	0.197	0.173	0.211	0.207	0.211	0.801	0.972	0.956	0.989	0.948
PC-14	0.477	0.447	0.476	0.278	0.19	0.223	0.2	0.161	0.839	0.917	1.07	0.814	0.818	0.922	0.875	0.942	0.986	0.99
NCI-H1395	0.565	0.613	0.598	0.627	0.715	0.689	0.736	0.776	–	–	–	–	–	1.06	1.37	0.985	1.04	1.22
NCI-H2405	0.515	0.508	0.424	0.269	0.711	0.7	0.644	0.397	0.791	0.89	0.946	0.803	0.925	0.85	0.883	0.927	0.909	1.09
SW 900	–	0.586	0.579	0.608	–	0.431	0.399	0.458	–	–	–	–	–	–	–	–	–	–
NCI-H2009	0.215	0.189	0.318	0.166	0.342	0.383	0.362	0.36	0.984	1.02	0.994	0.603	1	0.917	1.13	1.24	1.01	1.18
EPLC-272H	0.314	0.27	0.35	0.327	0.322	0.33	0.352	0.365	0.826	0.828	0.739	0.845	1.01	1.01	1.38	1.32	1.32	1.14
